# In US20240269139A1, “COMPOUNDS FOR TARGETED PROTEIN DEGRADATION OF KINASES” (DANA-FARBER CANCER INSTITUTE, INC., priority 2020, published 2024):
# “And” between values parts separate entries of the source, which are not always exact repeats. Equal entries are not always repeated. Where two headings read alike, the source gives them in different places.
# Assays:
# Type in all cases: cell-based
# [1] = target: protein kinases (human kinome) (Homo sapiens, UniProt Q15118); settings: PDK1 Q15118
# [2] = target: T1, protein kinases (human kinome) (Homo sapiens, UniProt Q14CZ7); settings: Accession Q14CZ7, direction down
# T1 sequence (Q14CZ7 1-662): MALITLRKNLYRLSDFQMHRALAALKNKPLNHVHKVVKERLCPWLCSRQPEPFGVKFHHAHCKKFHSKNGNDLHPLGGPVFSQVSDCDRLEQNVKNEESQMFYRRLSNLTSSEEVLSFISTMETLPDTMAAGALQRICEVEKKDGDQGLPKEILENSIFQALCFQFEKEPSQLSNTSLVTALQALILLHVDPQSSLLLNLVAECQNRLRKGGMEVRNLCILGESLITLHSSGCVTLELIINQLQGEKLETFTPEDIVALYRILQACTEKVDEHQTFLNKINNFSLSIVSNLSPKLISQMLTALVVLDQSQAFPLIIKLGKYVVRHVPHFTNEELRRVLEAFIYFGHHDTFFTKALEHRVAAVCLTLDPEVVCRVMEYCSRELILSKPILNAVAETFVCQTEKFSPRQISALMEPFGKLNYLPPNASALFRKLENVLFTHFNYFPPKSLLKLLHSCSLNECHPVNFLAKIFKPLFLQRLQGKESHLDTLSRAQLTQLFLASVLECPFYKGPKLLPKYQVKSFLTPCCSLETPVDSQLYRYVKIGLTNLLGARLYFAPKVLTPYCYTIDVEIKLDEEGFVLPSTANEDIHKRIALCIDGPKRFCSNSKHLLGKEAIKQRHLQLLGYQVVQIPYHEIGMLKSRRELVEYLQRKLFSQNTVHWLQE
# [3] = target: T2, protein kinases (human kinome) (Homo sapiens, UniProt Q12851); settings: for logFC MAP4K2 (Q12851): direction down; for logFC: MAP4K2 (Q12851)
# T2 sequence (Q12851 1-820): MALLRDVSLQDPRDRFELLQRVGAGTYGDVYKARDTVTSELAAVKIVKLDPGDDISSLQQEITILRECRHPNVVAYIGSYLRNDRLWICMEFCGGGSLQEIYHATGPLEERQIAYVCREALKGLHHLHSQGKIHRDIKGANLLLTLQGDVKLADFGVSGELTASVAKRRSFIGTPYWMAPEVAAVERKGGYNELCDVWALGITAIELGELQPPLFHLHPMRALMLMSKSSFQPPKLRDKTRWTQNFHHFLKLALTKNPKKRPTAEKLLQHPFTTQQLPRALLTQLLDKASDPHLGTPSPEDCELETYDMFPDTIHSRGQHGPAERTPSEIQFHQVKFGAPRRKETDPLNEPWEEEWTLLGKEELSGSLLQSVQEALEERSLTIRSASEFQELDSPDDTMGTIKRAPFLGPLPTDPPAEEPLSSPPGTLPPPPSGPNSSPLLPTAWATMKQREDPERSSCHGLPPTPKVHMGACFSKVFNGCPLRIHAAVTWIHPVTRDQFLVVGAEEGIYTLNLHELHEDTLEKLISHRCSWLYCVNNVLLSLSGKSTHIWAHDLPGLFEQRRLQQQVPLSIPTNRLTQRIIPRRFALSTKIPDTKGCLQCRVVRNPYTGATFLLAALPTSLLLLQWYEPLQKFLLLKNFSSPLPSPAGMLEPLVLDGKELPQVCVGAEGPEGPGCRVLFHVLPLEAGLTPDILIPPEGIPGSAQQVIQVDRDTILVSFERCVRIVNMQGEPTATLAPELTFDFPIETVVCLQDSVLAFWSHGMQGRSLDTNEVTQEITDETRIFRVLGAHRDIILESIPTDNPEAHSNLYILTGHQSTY
# [4] = target: protein kinases (human kinome) (Homo sapiens, UniProt P42684); settings: for logFC: ABL2 (P42684) protein abundance, degrader vs DMSO, down
# [5] = target: protein kinases (human kinome) (Homo sapiens, UniProt Q16539); settings: for logFC MAPK14: MAPK14, accession Q16539, direction of change down
# [6] = target: protein kinases (human kinome) (Homo sapiens, UniProt P41240); settings: for logFC of CSK: Accession P41240; for logFC CSK: CSK (P41240), down
# Sequence of protein kinases (human kinome) (Homo sapiens, UniProt P41240) (P41240 whole entry): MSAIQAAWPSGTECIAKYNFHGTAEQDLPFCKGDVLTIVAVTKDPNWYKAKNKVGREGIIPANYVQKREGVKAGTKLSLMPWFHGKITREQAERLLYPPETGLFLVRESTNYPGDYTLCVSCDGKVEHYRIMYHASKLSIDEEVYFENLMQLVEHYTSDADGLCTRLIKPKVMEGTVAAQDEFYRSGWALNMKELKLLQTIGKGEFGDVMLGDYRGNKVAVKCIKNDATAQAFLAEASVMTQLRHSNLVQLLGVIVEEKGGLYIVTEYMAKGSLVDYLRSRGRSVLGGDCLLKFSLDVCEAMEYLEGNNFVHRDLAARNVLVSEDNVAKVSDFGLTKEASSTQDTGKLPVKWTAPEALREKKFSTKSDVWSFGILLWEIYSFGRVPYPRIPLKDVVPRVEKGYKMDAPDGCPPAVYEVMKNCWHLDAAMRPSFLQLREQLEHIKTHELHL
# Sequence of protein kinases (human kinome) (Homo sapiens, UniProt Q15118) (Q15118 29-436): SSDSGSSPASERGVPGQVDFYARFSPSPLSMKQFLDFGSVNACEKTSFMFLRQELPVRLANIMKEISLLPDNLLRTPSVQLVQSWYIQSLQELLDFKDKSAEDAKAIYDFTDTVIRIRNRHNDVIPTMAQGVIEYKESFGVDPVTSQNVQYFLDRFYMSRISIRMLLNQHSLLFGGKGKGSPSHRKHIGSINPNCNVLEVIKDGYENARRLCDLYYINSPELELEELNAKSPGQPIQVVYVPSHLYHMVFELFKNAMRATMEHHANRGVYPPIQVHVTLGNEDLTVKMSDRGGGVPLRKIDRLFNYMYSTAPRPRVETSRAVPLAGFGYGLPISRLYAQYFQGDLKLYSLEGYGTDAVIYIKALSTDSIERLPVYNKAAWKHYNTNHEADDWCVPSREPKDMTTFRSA
# Sequence of protein kinases (human kinome) (Homo sapiens, UniProt Q16539) (Q16539 whole entry): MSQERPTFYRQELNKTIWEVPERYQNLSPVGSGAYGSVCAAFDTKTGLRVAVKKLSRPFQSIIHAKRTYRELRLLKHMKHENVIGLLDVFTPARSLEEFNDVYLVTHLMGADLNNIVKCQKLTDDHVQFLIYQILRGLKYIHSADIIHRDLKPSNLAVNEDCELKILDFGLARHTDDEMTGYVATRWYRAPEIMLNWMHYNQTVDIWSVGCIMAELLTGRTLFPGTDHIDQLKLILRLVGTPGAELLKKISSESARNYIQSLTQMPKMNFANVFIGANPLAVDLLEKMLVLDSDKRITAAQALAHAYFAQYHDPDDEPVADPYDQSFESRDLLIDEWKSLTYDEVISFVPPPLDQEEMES
# Sequence of protein kinases (human kinome) (Homo sapiens, UniProt P42684) (P42684 whole entry): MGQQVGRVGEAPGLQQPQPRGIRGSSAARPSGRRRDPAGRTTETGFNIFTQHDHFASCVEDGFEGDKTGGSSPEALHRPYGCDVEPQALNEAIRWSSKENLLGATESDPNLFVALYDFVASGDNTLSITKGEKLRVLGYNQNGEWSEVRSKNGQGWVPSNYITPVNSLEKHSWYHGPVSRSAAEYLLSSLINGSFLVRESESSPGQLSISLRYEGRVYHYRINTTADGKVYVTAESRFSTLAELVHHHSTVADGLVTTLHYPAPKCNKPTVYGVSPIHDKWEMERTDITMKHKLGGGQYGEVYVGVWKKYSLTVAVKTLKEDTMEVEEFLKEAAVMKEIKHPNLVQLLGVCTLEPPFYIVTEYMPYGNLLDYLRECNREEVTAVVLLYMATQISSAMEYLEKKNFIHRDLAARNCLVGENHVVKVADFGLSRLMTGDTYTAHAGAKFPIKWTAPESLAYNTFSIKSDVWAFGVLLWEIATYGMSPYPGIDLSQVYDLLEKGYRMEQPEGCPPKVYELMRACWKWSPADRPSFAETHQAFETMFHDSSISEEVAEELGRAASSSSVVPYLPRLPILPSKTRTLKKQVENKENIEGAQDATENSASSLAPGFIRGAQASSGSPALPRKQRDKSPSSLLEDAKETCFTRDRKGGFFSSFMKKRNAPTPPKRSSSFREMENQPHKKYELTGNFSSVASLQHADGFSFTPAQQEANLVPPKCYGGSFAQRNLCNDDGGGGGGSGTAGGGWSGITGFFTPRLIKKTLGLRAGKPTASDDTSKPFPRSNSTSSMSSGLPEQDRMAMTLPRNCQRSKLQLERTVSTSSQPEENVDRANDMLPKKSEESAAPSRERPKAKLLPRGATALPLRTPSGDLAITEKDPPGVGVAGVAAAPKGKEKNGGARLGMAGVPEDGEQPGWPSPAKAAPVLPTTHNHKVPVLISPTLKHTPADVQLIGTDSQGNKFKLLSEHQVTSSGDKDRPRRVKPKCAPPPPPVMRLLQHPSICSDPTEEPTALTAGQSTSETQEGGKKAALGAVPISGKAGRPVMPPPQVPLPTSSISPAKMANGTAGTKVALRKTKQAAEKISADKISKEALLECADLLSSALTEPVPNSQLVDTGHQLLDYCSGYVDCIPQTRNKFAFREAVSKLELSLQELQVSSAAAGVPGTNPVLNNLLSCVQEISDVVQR
compound,measurement,setting,value
CC(=O)c1c(C)c2cnc(Nc3ccc(N4CCN(CCOCCOCCOCCNC(=O)COc5cccc6c5C(=O)N(C5CCC(=O)NC5=O)C6=O)CC4)cn3)nc2n(C2CCCC2)c1=O (stereo not shown) [BSJ.03.123],logFC,[1]; experiment wp084,−0.5666
same,logFC PDK1,[1]; experiment wp084,−0.5666
same,logFC FASTKD3,[2]; experiment wp084,−0.4728
CN(C)C(=O)c1cc2cnc(Nc3ccc(N4CCN(CCCCNC(=O)COc5cccc6c5C(=O)N(C5CCC(=O)NC5=O)C6=O)CC4)cn3)nc2n1C1CCCC1 (stereo not shown) [BSJ.04.132],logFC,[1]; experiment wp084,−0.7569
same,logFC PDK1,[1]; experiment wp084,−0.7569
same,logFC FASTKD3,[2]; experiment wp084,−0.5428
"Cc1ccc(NC(=O)c2cccc(C(F)(F)F)c2)cc1N1Cc2cnc(Nc3ccc(N4CCN(Cc5cn(CCCCCOc6cccc7c6C(=O)N(C6CCC(=O)NC6=O)C7=O)nn5)CC4)nc3)nc2N(C)C1=O (stereo not shown) [DB0646, N-(3-(7-((6-(4-((1-(5-((2-(2,6-Dioxopiperidin-3-yl)-1,3-dioxoisoindolin-4-yl)oxy)pentyl)-1H-1,2,3-triazol-4-yl)methyl)piperazin-1-v)pyridin-3-yl)amino)-1-methyl-2-oxo-1,4-dihydropyrimido[4,5-d]pyrimidin-3(2H)-yl)-4-methylphenyl)-3-(trifluoromethyl)benzamide]",logFC FASTKD3,[2]; experiment wp152,−0.3418
same,logFC MAP4K2 (Q12851),[3]; Experiment wp045,−0.7569
same,logFC MAP4K2 (Q12851),[3]; Experiment wp103,−0.4625
same,logFC MAP4K2 (Q12851),[3]; Experiment wp107,−0.6245
same,logFC MAP4K2 (Q12851),[3]; Experiment wp117,−0.5616
same,logFC MAP4K2 (Q12851),[3]; Experiment wp152,−0.7981
same,logFC MAP4K2 (Q12851),"[3]; Experiment wp160, 4 hr",−0.6132
same,logFC MAP4K2 (Q12851),"[3]; Experiment wp160, 8 hr",−1.155
same,logFC,[3]; experiment wp045,−0.7569
same,logFC,[3]; experiment wp103,−0.4625
same,logFC,[3]; experiment wp107,−0.6245
same,logFC,[3]; experiment wp117,−0.5616
same,logFC,[3]; experiment wp152,−0.7981
same,logFC,"[3]; experiment wp160, 4 hr",−0.6132
same,logFC,"[3]; experiment wp160, 8 hr",−1.155
same,logFC,[4]; 4 hr,−0.5029
same,logFC,[4]; 8 hr,−0.7288
same,logFC,[4],−0.5941 and −0.5342 and −0.5362
same,logFC ABL2 (P42684),[4]; Experiment wp045,−0.5941
same,logFC ABL2 (P42684),[4]; Experiment wp107,−0.5342
same,logFC ABL2 (P42684),[4]; experiment wp152,−0.5362
same,logFC ABL2 (P42684),"[4]; experiment wp160, 4 hr",−0.5029
same,logFC ABL2 (P42684),"[4]; experiment wp160, 8 hr",−0.7288
same,logFC of MAPK14,"[5]; Accession Q16539, experiment wp172",−0.6469
same,logFC,"[5]; MAPK14 (Q16539) protein abundance, degrader vs DMSO, down",−0.7793 and −0.6013
same,logFC,"[5]; MAPK14 (Q16539), experiment wp107",−0.7601
same,logFC,"[5]; MAPK14 (Q16539), experiment wp114",−0.5814
same,logFC,"[5]; MAPK14 (Q16539), experiment wp117",−0.6392
same,logFC,"[5]; MAPK14 (Q16539), experiment wp152",−0.7821
same,logFC,"[5]; MAPK14 (Q16539), experiment wp160, 2 hr",−0.4404
same,logFC,"[5]; MAPK14 (Q16539), experiment wp160, 4 hr",−0.7162
same,logFC,"[5]; MAPK14 (Q16539), experiment wp160, 8 hr",−1.153
same,logFC,"[5]; MAPK14 (Q16539), experiment wp172",−0.6469
same,logFC MAPK14,[5]; experiment wp045,−0.7793
same,logFC MAPK14,[5]; experiment wp103,−0.6013
same,logFC MAPK14,[5]; experiment wp107,−0.7601
same,logFC MAPK14,[5]; experiment wp114,−0.5814
same,logFC MAPK14,[5]; experiment wp117,−0.6392
same,logFC MAPK14,[5]; experiment wp152,−0.7821
same,logFC MAPK14,"[5]; experiment wp160, 2 hr",−0.4404
same,logFC MAPK14,"[5]; experiment wp160, 4 hr",−0.7162
same,logFC MAPK14,"[5]; experiment wp160, 8 hr",−1.153
same,logFC of CSK,[6]; experiment wp045,−1.542
same,logFC of CSK,[6]; experiment wp103,−1.282
same,logFC of CSK,[6]; experiment wp105,−0.6868
same,logFC of CSK,[6]; experiment wp107,−1.311
same,logFC of CSK,[6]; experiment wp114,−0.6932
same,logFC of CSK,[6]; experiment wp117,−1.414
same,logFC of CSK,[6]; experiment wp152,−1.513
same,logFC of CSK,"[6]; experiment wp160, 2 hr",−0.8308
same,logFC of CSK,"[6]; experiment wp160, 4 hr",−1.416
same,logFC of CSK,"[6]; experiment wp160, 8 hr",−1.753
same,logFC of CSK,[6]; experiment wp172,−0.8538
same,logFC CSK,[6]; experiment wp045,−1.542
same,logFC CSK,[6]; experiment wp103,−1.282
same,logFC CSK,[6]; experiment wp105,−0.6868
same,logFC CSK,[6]; experiment wp107,−1.311
same,logFC CSK,[6]; experiment wp114,−0.6932
same,logFC CSK,[6]; experiment wp117,−1.414
same,logFC CSK,[6]; experiment wp152,−1.513
same,logFC CSK,"[6]; experiment wp160, 2 hr",−0.8308
same,logFC CSK,"[6]; experiment wp160, 4 hr",−1.416
same,logFC CSK,"[6]; experiment wp160, 8 hr",−1.753
same,logFC CSK,[6]; experiment wp172,−0.8538
CC(C)(C)c1nc(-c2cccc(NS(=O)(=O)c3c(F)cccc3F)c2F)c(-c2ccnc(NCCOCCNC(=O)CCOCCOCCNc3cccc4c3CN(C3CCC(=O)NC3=O)C4=O)n2)s1 (stereo not shown) [DD.03.107],logFC,"[1]; experiment wp147, 1 uM",−0.4722
same,logFC PDK1,"[1]; experiment wp147, 1 uM",−0.4722
same,logFC,"[1]; experiment wp147, 2 uM",−0.4534
same,logFC PDK1,"[1]; experiment wp147, 2 uM",−0.4534
same,logFC,"[1]; experiment wp147, 4 uM",−1.108
same,logFC PDK1,"[1]; experiment wp147, 4 uM",−1.108
same,logFC FASTKD3,"[2]; experiment wp147, 1 uM",−0.6939
same,logFC FASTKD3,"[2]; experiment wp147, 2 uM",−0.6931
same,logFC FASTKD3,"[2]; experiment wp147, 4 uM",−1.191
O=C(COc1cccc2c1C(=O)N(C1CCC(=O)NC1=O)C2=O)NCCCCCCCC(=O)NC1(c2ccc(-c3nc4ccn5c(=O)[nH]nc5c4cc3-c3ccccc3)cc2)CCC1 (stereo not shown) [INY.01.140.1],logFC,[1]; experiment wp081,−0.4328
same,logFC PDK1,[1]; experiment wp081,−0.4328
same,logFC FASTKD3,[2]; experiment wp081,−0.3846
C=CCn1c(=O)c2cnc(Nc3ccc(N4CCN(CCCNc5cccc6c5C(=O)N(C5CCC(=O)NC5=O)C6=O)CC4)cc3)nc2n1-c1cccc(C(C)(C)O)n1 (stereo not shown) [ZNL.02.096],logFC,[1]; experiment wp056,−0.3685
same,logFC PDK1,[1]; experiment wp056,−0.3685
same,logFC FASTKD3,[2]; experiment wp056,−0.7131
